Experimental findings from US20150218164A1, “SUBSTITUTED NAPHTHYRIDINEDIONE DERIVATIVES AS HIV INTEGRASE INHIBITORS” (MERCK SHARP & DOHME CORP., priority 2012, published 2015) are described below.

For the assay, the system named is HIV-1 (NL4-3 strain). As to the kind of experiment: Assay for inhibition of HIV replication (MT4-gag-GFP reporter cells, wild type cell assay). In kind it is cell-based. As to conditions: MT4-GFP cells infected with HIV-1 NL4-3, infected cells at 48 h / 24 h, read-out: Wild Type Cell Assay IP (% NHS). The method, then:
This assay is a kinetic assay that employs a reporter cell line (MT4-gag-GFP) to quantify the number of new cells infected in each round of replication. Briefly, MT4-GFP cells (250,000 cells/ml) were bulk-infected with HIV-1 (NL4-3 strain) at low multiplicity of infection (MOI) in RPMI+10% FBS for 24 hours. Cells were then washed once in RPMI+10% FBS and resuspended RPMI+10% or 50% normal human serum (NHS). Test compounds were serial-diluted in DMSO on ECHO. The infected MT4-GFP cells were added to a 384-well poly-D-lysine coated black plate with clear bottom in which the diluted test compounds were placed. The cells were seeded at 8,000 cells per well and the final DMSO concentration was 0.4%. The infected cells (Green GFP cells) were quantified at both 24 and 48 hours post incubation using Acumen eX3. Viral reproductive ratio (R0) was determined using the number of infected cells at 48 hours divided by the number of infected cells at 24 hours. Percent viral growth inhibition was calculated by [1−(R−Rtripledrug)/(RDMSO−Rtripledrug)]*100. Compound potency IP or IC50 was determined by a 4-parameter dose response curve analysis.

Where [1] appears, read: Human immunodeficiency virus 1, NL43, 50% NHS.
[2] abbreviates: Human immunodeficiency virus 1, NL43, 10% NHS.

Each structure is given as a SMILES string. Like-named read-outs stand apart in the source and are kept apart here.

Turning to `C[C@@H](CN1C(=O)c2c3c(c(O)c(=O)n2[C@@]12CC[C@H]1C[C@H]12)C(=O)N(Cc1ccc(F)c(Cl)c1)CC3)OP(=O)(O)O` [Compound 1], the IC50 under setting [1] stood at 1200 nM.

Take `CN1C(=O)c2c3c(c(O)c(=O)n2[C@]12CC[C@@H]1C[C@@]12CO)C(=O)N(Cc1ccc(F)c(Cl)c1)CC3` [Compound 15]: the IC50 under setting [1] is 24 nM. Same read-out and setting: in the case of `C[C@@H](CN1C(=O)c2c3c(c(O)c(=O)n2[C@@]12CC[C@H]1C[C@H]12)C(=O)N(Cc1ccc(F)c(Cl)c1)CC3)OC(=O)CN(C)C` [Compound 13] it was 69 nM; in that of `CC(O)CCN1C(=O)c2c3c(c(O)c(=O)n2[C@@]12CC[C@H]1C[C@H]12)C(=O)N(Cc1ccc(F)c(Cl)c1)CC3` (single isomer, unassigned) [Compound 3], 32 nM. On the same count and under the same terms, in the case of `C[C@H](O)CN1C(=O)c2c3c(c(O)c(=O)n2[C@@]12CC[C@H]1C[C@H]12)C(=O)N(Cc1ccc(F)c(Cl)c1)CC3` (single isomer, unassigned) [Compound 6] it was 53 nM; in that of `C[C@H](CN1C(=O)c2c3c(c(O)c(=O)n2[C@@]12CC[C@H]1C[C@H]12)C(=O)N(Cc1ccc(F)c(Cl)c1)CC3)OP(=O)(O)O` [Compound 7], 1090 nM. Still for that read-out and setting: the value for `C[C@@H](O)CN1C(=O)c2c3c(c(O)c(=O)n2[C@@]12CC[C@H]1C[C@H]12)C(=O)N(Cc1ccc(F)c(Cl)c1)CC3` (single isomer, unassigned) [Compound 2] was 33 nM.

As for `O=C1c2c(c3n(c(=O)c2O)[C@@]2(CC[C@H]4C[C@H]42)N(CC(O)CF)C3=O)CCN1Cc1ccc(F)c(Cl)c1` (single isomer, unassigned) [Compound 4], the IC50 under setting [2] amounted to 7.5 nM.

Turning to `CC(C)[C@H](N)C(=O)O[C@@H](C)CN1C(=O)c2c3c(c(O)c(=O)n2[C@@]12CC[C@H]1C[C@H]12)C(=O)N(Cc1ccc(F)c(Cl)c1)CC3` [Compound 12], under setting [1], the IC50 is 54 nM. For `CSCC[C@H](N)C(=O)O[C@@H](C)CN1C(=O)c2c3c(c(O)c(=O)n2[C@@]12CC[C@H]1C[C@H]12)C(=O)N(Cc1ccc(F)c(Cl)c1)CC3` [Compound 11], the IC50 under setting [1] stood at 71 nM. For the compound `O=C1c2c(c3n(c(=O)c2O)[C@@]2(CC[C@H]4C[C@H]42)N(CC(F)CO)C3=O)CCN1Cc1ccc(F)c(Cl)c1` (single isomer, unassigned) [Compound 5], the IC50 under setting [2] worked out at 27 nM. Take `C[C@H](N)C(=O)O[C@@H](C)CN1C(=O)c2c3c(c(O)c(=O)n2[C@@]12CC[C@H]1C[C@H]12)C(=O)N(Cc1ccc(F)c(Cl)c1)CC3` [Compound 9]: under setting [1], the IC50 was 42 nM. Regarding `CN1C(=O)c2c3c(c(O)c(=O)n2[C@]12CC[C@@H]1C[C@@]12COP(=O)(O)O)C(=O)N(Cc1ccc(F)c(Cl)c1)CC3` (single isomer, unassigned) [Compound 19], the IC50 under setting [1] was determined as 2090 nM. The same measure, in the same setting: the value for `CN1C(=O)c2c3c(c(O)c(=O)n2[C@@]12CC[C@@H]1C[C@@]12CO)C(=O)N(Cc1ccc(F)c(Cl)c1)CC3` [Compound 14] was 14 nM; that for `CC(C)C[C@H](N)C(=O)O[C@@H](C)CN1C(=O)c2c3c(c(O)c(=O)n2[C@@]12CC[C@H]1C[C@H]12)C(=O)N(Cc1ccc(F)c(Cl)c1)CC3` [Compound 10] was 49 nM; that for `C[C@@H](CN1C(=O)c2c3c(c(O)c(=O)n2[C@@]12CC[C@H]1C[C@H]12)C(=O)N(Cc1ccc(F)c(Cl)c1)CC3)OC(=O)[C@@H](N)CCCCN` [Compound 8] was 46 nM. For `CSCC12CC1CCC21NC(=O)c2c3c(c(O)c(=O)n21)C(=O)N(Cc1ccc(F)c(Cl)c1)CC3` (stereo not shown) [Compound 17], the IC50 (50% NHS) turned out to be 28 nM.

In the case of `CS(=O)(=O)CC12CC1CCC21NC(=O)c2c3c(c(O)c(=O)n21)C(=O)N(Cc1ccc(F)c(Cl)c1)CC3` (stereo not shown) [Compound 18], under setting [1], the IC50 is 37 nM.

For the compound `CSCC12CC1CCC21NC(=O)c2c3c(c(O)c(=O)n21)C(=O)N(Cc1ccc(F)c(Cl)c1)CC3` (stereo not shown) [Compound 16], the IC50 under setting [1] amounted to 20 nM.
